These results are taken from patent US20050123477A1, “Benzothiazole derivatives for in vivo imaging of amloid plaques” (priority 2002, published 2005).

What is called Papp is a coefficient for how fast a substance crosses the barrier.

The nature of data set [1]: Brain Uptake Index (BUI) method. It counts as in vivo. The protocol: BUI is calculated according to the following equation: [formula] BUI was performed on three animals from the same test solution for each experiment. Each compound was assayed in duplicate.
Data set [2] concerns the target T1, fibrillar Beta-Amyloid Protein (BAP 1-40) (Homo sapiens, UniProt P05067).
T1 construct: 25 μl BAP 1-40 (10 mg/ml, Biosource 03-138); purchased Biosource 03-138 (BAP 1-40); 03-243 (biotinylated BAP 1-40)
The experiment in a line: Amyloid binding on SPA beads. The following applies: 180 minutes at room temperature, equimolar amounts, non-specific binding subtracted. The procedure: The binding of Compound 1 (74 TBq/mmol) was determined compared to the ability of ^125I-beta amyloid protein 1-40 (^125I-BAP 1-40, Amersham Biosciences IM294)) to bind to amyloid 140 fibrils. Amyloid binding was essentially performed as follows.
Three fresh buffer stocks were prepared for experiments: Buffer 1, 50 mM HEPES/0.1 % Bovine Serum Albumin (BSA) pH 7.5; Buffer 2, 50 mM HEPES/0.1% BSA/400 μM ZnCl2 pH 7.5; Buffer 3, 50 mM HEPES/0.1% BSA/100 μM ZnCl2 pH 7.5.
Streptavidin coated scintillation proximity assay beads (SA-SPA beads, Amersham Biosciences) were used to immobilise fibrillar Beta-Amyloid Protein (BAP 1-40). Amyloid coated beads (SPA-BAP) were prepared by incubating 250 μl SA-SPA beads (100 mg/ml) with 250 μl Buffer 2, 425 μl Buffer 1, 50 μl biotinylated BAP 1-40 (0.5 mg/ml, Biosource 03-243), 25 μl BAP 1-40 (10 mg/ml, Biosource 03-138). Non-specific binding SPA beads (SPA-NSB) were prepared to assess the binding of compounds to SPA beads with no associated BAP 1-40 fibrils in the following incubation: 250 μl SA-SPA beads (100 mg/ml) with 250 μL Buffer 2,500 μl Buffer 1.
SPA-BAP and SPA-NSB incubations were left for 24 hours at room temperature and then spun 1.5 ml tubes (eppendorf, Merk, 306/0421/12) for 2 minutes at 1000×g. The supernatants were removed and the beads were washed twice by resuspending them in 1 ml Buffer 3 followed by centrifugation for 2 minutes at 1000×g. Finally, washed SPA-BAP and SPA-NSB beads were resuspended in 1 ml Buffer 3.
Amyloid binding of ^125I-BAP 1-40 and Compound 1 was performed in triplicate in 0.5 ml tubes (eppendorf, Merk, 306/0421/02) by adding 50 μl SPA-BAP beads to 25 μl Buffer 2 and 25 μl labelled compound (^125I-BAP 1-40 or Compound 1). Tubes were then incubated for 180 minutes at room temperature with shaking, followed by centrifugation for 2 minutes at 1000×g. The supernatants were removed and SPA-BAP pellet washed twice with 300 μl Buffer 3 containing 1% TWEEN-20 (Sigma, P7949). Non-specific binding for labelled compounds to the SPA beads was determined using incubations as described above but by substituting SPA-BAP beads with SPA-NSB beads. Radioactivity associated with the washed SPA bead pellets was then determined.
The affinity of labelled compounds for fibrillar BAP 1-40 was estimated by subtracting SPA-NSB associated counts from SPA-BAP associated counts. The binding of labelled compounds was then compared to ^125I-BAP binding, which was taken as being 100%.
In these experiments, ^125-BAP 1-40 or Compound 1 were added in equimolar amounts (between 1-5×10^−11 mmoles per incubation).

A short description of the next data set: Capillary depletion. The following applies: carotid bolus, brain removed ten seconds after injection.
In the next data set the test system is CACO-2 cells. Briefly: CACO-2 cell apparent permeability (Papp), BBB model. The conditions noted are these: CACO-2 monolayers in Transwells, 30 minutes at 37° C., donor to acceptor. The protocol:
Culturing of CACO-2 cells and Determination of Apparent Permeability (Papp) Values:
The seeding of 12 mm Transwells was as follows for CACO-2. Flasks of confluent cultures were trypsinsed and cells were carefully resuspended, making sure there are no clumps or air bubbles. 1.5 ml of tissue culture medium was placed in the bottom (acceptor) chamber of the wells and 0.5 ml containing 2×10^5 cells in the Transwell (donor chamber) and placed in the incubator. The cells were routinely monitored for adequate trans epithelial electrical resistance (TEER) using an EndOhm Tissue resistance measurement chamber (WPI). The subsequent maintenance and feeding of the cells on the Transwells was as follows: when feeding the wells, the medium was removed from the acceptor chamber (basolateral side) and donor chamber (apical side) of the Transwells. The medium was aspirated off with a pipette connected to a vacuum pump, being careful not to touch the filter. 0.5 ml of growth medium was then placed into the donor chamber and 1.5 ml of growth medium was placed into the acceptor chamber.
When the TEER values of the CACO-2 cell monolayers in Transwells was around 500 Ωcm^2 (300-800 Ωcm^2 was considered acceptable) permeability experiments were performed in triplicate as follows. All culture media was removed and acceptor and donor chambers were rinsed twice with Eagles Balance Salt Solution (EBSS) (Gibco) at 37° C. 1.5 ml EBSS was added to the acceptor chamber and 0.5 ml EBSS containing radiolabelled compound was added to the donor chamber. Cultures in Transwells were then incubated for 30 minutes at 37° C. at 200 rpm using a Labnet Vortemp. After 30 minutes, 100 μl aliquot was taken from the donor chamber and 750 μl from the acceptor chamber. These aliquots were then counted for radioactivity. The remaining EBSS was removed from the acceptor and donor chambers and then the Transwell was thoroughly rinsed three times la with EBSS. Next, the Transwell membrane (and associated cells) was removed using a scalpel and the amount of radiolabel associated with it was determined.
Permeability of compounds were determined by calculating their Papp value: Papp=ΔQ/Δt.60.A.Co (cm/sec)

The next data set is described as follows: In situ brain perfusion. It counts as in vivo. The conditions noted are these: unidirectional brain influx constant, perfusion 2-30 minutes. Also on record: unit not given here.

Each structure is given as a SMILES string.

T1 sequence (P05067 672-711 limits assumed): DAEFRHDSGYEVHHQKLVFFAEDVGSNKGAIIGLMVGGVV
Description for Capillary depletion: Compounds that may appear to cross the blood-brain barrier may be sticking to the vasculature within the brain, rather than entering the brain parenchyma. For this reason a capillary depletion method was employed that separates the capillaries from brain homogenate.
Male Wistar rats weighing 150-250 g were deeply anaesthetised by the administration of 55 mg/kg sodium pentabarbital (Rhone-Meriaux) by intra peritoneal injection. The left common carotid artery was exposed by blunt dissection, and 100 μl of test solution injected in a single bolus into the carotid using a 30G needle and 1ml syringe (injection time ˜1 second). The injectate contained both the test/validation compound and ^14C— or ^3H-Sucrose (Amersham Biosciences) as a non-diffusable standard. Ten seconds after injection, the animal was decapitated and the brain removed. […] Pellet, supernatant and a sample of injection solution were counted on a Rackbeta Excel scintillation counter, after the addition of 10 ml Hionic Fluor scintillant (Packard). ^14C/^3H-Sucrose served to correct for vascular volume of vessels contained in the pellet, and also activity that had leaked from the vasculature into the supernatant during the homogenisation procedure.
Volumes of distribution for pellet and supernatant were calculated as shown below. Data is expressed as ratio of volume of distribution in the supernatant to pellet. […]
Description for In situ brain perfusion: For this reason an in situ brain perfusion technique was used.
The brain was perfused with a saline-based solution containing the test compound for 2, 5, 15, 20 and 30 minutes and uptake in the brain calculated as a percentage of concentration of test substance in the perfusate (R tissue=dpm per g brain/dpm per μl perfusate×100%).
Uptake is plotted against time and the slope of the graph represents the unidirectional brain influx constant, Kin. This reflects the rate of entry of a compound into the CNS.

`Cc1cc(-c2nc3cc([125I])ccc3s2)ccc1N` [Compound 1, 5-[^125I]-iodo-2-(4′-amino-3′-methylphenyl)benzothiazole]: in data set [1] (carotid artery bolus, decapitated after 15 seconds, relative to 14C-Butanol), the “Mean BUI” value was 43.6. For the same compound, in data set [1] (cut off low/medium 20%), the “BBB penetration (from BUI)” value is given as “medium to high BBB penetration”. In addition, the “Amyloid binding (% of 125I-BAP 1-40)” value in data set [2] was determined as 27%. For the same compound, the “Ratio of VD supernatant/pellet” value in “Capillary depletion” was found to be 7.2. Besides, the Papp with CACO-2 cells was determined as 13.7 ×10⁻⁶ cm/s. The Kin in “In situ brain perfusion” is 49.8.
